“And” between values parts separate entries of the source, which are not always exact repeats. Identical values can stand only once. Like-named read-outs stand apart in the source and are kept apart here.
Key:
[1] = in vivo; conditions: female, DBA-1J, mouse, po
[2] = test system: HRV-14; assay: microbe, parasite or virus in culture; assay type: cell-based
[3] = female, DBA-1J, mouse, in vivo
[4] = test system: POWV; assay: microbe, parasite or virus in culture; assay type: cell-based; conditions: Powassan virus, BHK, BHK cells
[5] = Plasma pharmacokinetics in dogs after a single dose of EIDD-2800; conditions: dog, 140 mg/kg
[6] = test system: ZIKV; assay: microbe, parasite or virus in culture; assay type: cell-based; conditions: Zika virus, Vero 76
[7] = test system: Flu B; assay: microbe, parasite or virus in culture; assay type: cell-based; conditions: Influenza B virus, MDCK
[8] = test system: Maporal virus; assay: microbe, parasite or virus in culture; assay type: cell-based
[9] = ICR (CD-1), mouse, in vivo
[10] = test system: EEEV; assay: microbe, parasite or virus in culture; assay type: cell-based; conditions: Eastern equine encephalitis virus
[11] = Cytotoxicity (CC50) run with antiviral assays, HG23 cells; conditions: human
[12] = mouse, in vivo
[13] = test system: SARS; assay: microbe, parasite or virus in culture; assay type: cell-based, SARS coronavirus; conditions: Severe acute respiratory syndrome coronavirus
[14] = test system: Tacaribe virus; assay: microbe, parasite or virus in culture; assay type: cell-based; conditions: Mammarenavirus tacaribeense, Vero, Vero cells
[15] = test system: CEM cells; assay type: cell-based; conditions: CEM cells (lowest of the range)
[16] = test system: YFV; assay: microbe, parasite or virus in culture; assay type: cell-based; conditions: Yellow fever virus, Vero 76
[17] = test system: EBOV; assay: microbe, parasite or virus in culture; assay type: cell-based, Ebola virus; conditions: Zaire ebolavirus, Vero
[18] = test system: Enterovirus-68; assay type: cell-based
[19] = test system: Lymphocytic choriomeningitis virus; assay: microbe, parasite or virus in culture; assay type: cell-based; conditions: Mammarenavirus choriomeningitidis, Vero
[20] = test system: Punta Toro virus; assay: microbe, parasite or virus in culture; assay type: cell-based
[21] = test system: Enterovirus-71; assay type: cell-based
[22] = test system: Flu A H5N1 (Low Path); assay: microbe, parasite or virus in culture; assay type: cell-based; conditions: Influenza A virus, H5N1, MDCK
[23] = test system: Pichinde virus; assay: microbe, parasite or virus in culture; assay type: cell-based; conditions: Vero, Vero cells
[24] = test system: RSV; assay: microbe, parasite or virus in culture; assay type: cell-based, respiratory syncytial virus
[25] = test system: Junin virus; assay: microbe, parasite or virus in culture; assay type: cell-based; conditions: Mammarenavirus juninense, Vero, Vero cells
[26] = test system: WNV; assay: microbe, parasite or virus in culture; assay type: cell-based; conditions: West Nile virus, Vero 76
[27] = test system: Vero cells
[28] = test system: HCoV; assay: microbe, parasite or virus in culture; assay type: cell-based; conditions: unidentified human coronavirus, Vero C1008

O=c1nc(NO)ccn1C1OC(CO)C(O)C1O (centres unmarked) [EIDD-1931, 1-(3,4-dihydroxy-5-(hydroxymethyl)tetrahydrofuran-2-yl)-4-(hydroxyamino)pyrimidin-2-one]
half-life [1]: 4.1 to 4.7 h
Cmax ([1]; 30 mg/kg): 3000 ng/mL
Cmax ([1]; 100 mg/kg): 7700 ng/mL
Cmax ([1]; 300 mg/kg): 11700 ng/mL
tmax ([1]; 300 mg/kg): 0.25 to 0.5 h
EC50 [2]: 1.36 µM
EC50 ([2]; Rhinovirus B, HRV14): 1.28 µM
Bioavailability (versus i.p. delivery) [3]: 39-46%
Bioavailability (versus i.p. delivery) ([3]; 30 mg/kg): 65%
plasma T1/2 ([3]; iv): 2.2 h
EC50 [4]: 11.2 µM
AUC(0-inf) [5]: 498 ± 40.4 µM·h
tmax [5]: 1.4 ± 0.5 h
EC90 [6]: 2.36 µM
EC50 [7]: < 0.4 µM
EC50 [8]: > 124 µM
EC50 ([8]; Maporal virus, Vero 76): 84 µM
t1/2 ([9]; 15 mg/kg): 2.9 h
t1/2 ([9]; 225 mg/kg): 4.2 h
AUCinf ([9]; 750 mg/kg): 228.9 µM·h
Brain Cmax ([9]; 750 mg/kg): 18.8 nmol/g
t1/2 ([9]; 750 mg/kg): 5.2 h
EC90 ([10]; Vero 76): 1.68 µM
EC50 ([10]; Vero, EEE virus, Vero cell cytopathic effect (CPE) model): 1.08 µM
CC50 [11]: > 100 µM
body weight [12]: weight loss was observed
EC90 ([13]; Vero 76): 0.56 µM
EC90 ([13]; Vero C1008): < 0.8 µM
EC50 ([13]; Vero C1008, SARS, Vero E6 cells): < 0.8 µM
EC50 [14]: 14.4 µM
selectivity index [15]: 8
EC90 [16]: 26 µM
EC50 [17]: 4.7 µM
EC90 [17]: 25 µM
EC50 [18]: 1.28 µM and 1.16 µM
EC90 [19]: 25.2 µM
EC50 [20]: 20.4 µM
EC50 ([20]; Punta Toro virus, Vero 76): 20 µM
EC50 [21]: 3.44 µM and 3.36 µM
EC50 [22]: 1.28 µM
EC50 [23]: 18.4 µM
EC50 [24]: 27.6 µM
EC50 ([24]; human respiratory syncytial virus, MA104): 14 µM
EC50 [25]: 18.4 µM
EC50 [26]: > 400 µM
AUC0->t [27]: 228.6 pmol · h/M cells
EC50 [28]: < 0.4 µM

Source: patent publication US11903959B2 (EMORY UNIVERSITY, priority 2017, dated 2024)
